Results published in patent publication US20260364068A1, “ANTIVIRAL USE OF HETEROARYL DERIVATIVE COMPOUND” (UIF (University Industry Foundation), Yonsei University, priority 2022, published 2026).
Read-outs that look alike come from different tables or passages of the source.

Experiments:
Assay type in all cases: cell-based
human ANO6 (variant 5) = target: T1, human ANO6 (variant 5) (Homo sapiens, UniProt Q4KMQ2); experiment: Lact C2 assay (phosphatidylserine externalization scramblase function); settings: FRT cells expressing human ANO6, ionomycin 10 μM, read-out: % Inhibition (phosphatidylserine externalization inhibitory activity); for inhibition at 0.05 µM: 50 nM
T1 construct: expressed in transfected cells; host or cells: Fisher rat thyroid (FRT) cells
T1 sequence (Q4KMQ2 1-931 isoform Q4KMQ2-2): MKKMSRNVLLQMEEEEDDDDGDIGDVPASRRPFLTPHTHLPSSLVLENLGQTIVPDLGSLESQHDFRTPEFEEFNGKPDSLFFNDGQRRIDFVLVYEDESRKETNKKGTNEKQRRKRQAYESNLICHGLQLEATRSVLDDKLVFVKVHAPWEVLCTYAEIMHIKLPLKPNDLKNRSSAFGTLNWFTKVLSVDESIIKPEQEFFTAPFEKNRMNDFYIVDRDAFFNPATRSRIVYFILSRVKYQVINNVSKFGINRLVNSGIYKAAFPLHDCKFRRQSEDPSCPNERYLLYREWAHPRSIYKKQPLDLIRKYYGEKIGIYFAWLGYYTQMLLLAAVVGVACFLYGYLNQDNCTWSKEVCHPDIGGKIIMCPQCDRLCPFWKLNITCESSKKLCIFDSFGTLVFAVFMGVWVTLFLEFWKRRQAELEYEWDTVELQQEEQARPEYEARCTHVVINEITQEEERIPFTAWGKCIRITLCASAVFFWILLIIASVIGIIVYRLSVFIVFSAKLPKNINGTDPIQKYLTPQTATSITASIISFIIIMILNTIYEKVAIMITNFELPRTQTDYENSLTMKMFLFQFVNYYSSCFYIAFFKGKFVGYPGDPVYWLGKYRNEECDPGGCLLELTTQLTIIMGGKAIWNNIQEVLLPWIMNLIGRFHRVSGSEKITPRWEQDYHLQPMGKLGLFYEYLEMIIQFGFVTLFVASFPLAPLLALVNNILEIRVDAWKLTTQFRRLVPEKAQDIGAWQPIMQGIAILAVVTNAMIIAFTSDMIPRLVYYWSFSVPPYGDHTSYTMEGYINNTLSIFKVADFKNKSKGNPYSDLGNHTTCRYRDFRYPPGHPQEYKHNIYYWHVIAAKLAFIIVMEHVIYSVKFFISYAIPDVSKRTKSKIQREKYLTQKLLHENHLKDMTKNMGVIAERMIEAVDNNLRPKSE
Experimental: Experimental Example 2: Lact C2 Assay (Measuring Phosphatidylserine Externalization Scramblase Function)
Ionomycin (Alomonelab, cat. #I-700), DAPI (Sigma-Aldrich, cat. #D8417), paraformaldehyde (Biosesang, cat. #P2031), Lionheart FX automated fluorescence microscope (BioTek), Gen5™ software program (BioTek), and Image J analysis software program.
Fisher rat thyroid (FRT) cells expressing human ANO6 (variant 5; GenBank accession no. NP_001191732.1) were cultured at 37 °C under 5% CO2 conditions in DMEM/Ham's F-12 (1:1) medium supplemented with 10% Fetal Bovine Serum, 2 mM […], 100 units/mL penicillin, and 100 μg/mL streptomycin.
Fischer Rat Thyroid (FRT) cells (2×10^4 cells/well) expressing human ANO6 (variant 5) were cultured in a 96-well microplate for 24 hours. After the incubation, the cells were treated with compounds dissolved in DMSO to 1% v/v in each well at each concentration (50 nM, 100 nM, and 1 μM) and reacted for 10 minutes. Thereafter, each well was treated with ionomycin to a final concentration of 10 μM, allowed to react for 10 minutes, and then washed with 200 μL PBS. After washing, each well was treated with 50 μL of Lactadherin-C2 (Lact-C2)-GFP mixed in DMEM medium to a final concentration of 500 nM to stain phosphatidylserine, and cultured at 37 °C for 10 minutes. After completion of the reaction, the cells were washed with 200 μL PBS, and fixed with 4% paraformaldehyde for 5 minutes at room temperature. For morphological analysis, DAPI solution was added, and the cells were incubated for 15 minutes, followed by washing with PBS. The fluorescence intensity of Lact-C2-GFP bound to phosphatidylserine on the cell surface was measured using an automated fluorescence microscope. For quantitative analysis of the fluorescence intensity of Lact-C2-GFP, BioTek Gen5™ software and Image J analysis software programs were used.
Phosphatidylserine externalization inhibitory activity (%) by the compound was calculated through the following analysis method. Specifically, the background fluorescence value was subtracted from the measured Lact-C2-GFP fluorescence value, and the fluorescence value of the ionomycin non-treatment group and the ionomycin-treatment group in the same row where each test group was located in a 96-well microplate were calculated. In order to calculate the inhibitory activity (%) by the compound, the relative inhibitory activity was calculated by setting the compound and ionomycin non-treatment group to 100% inhibitory activity and the ionomycin alone treatment group to 0% inhibitory activity. To derive the results, the test was repeated three times, and the average values of the results were classified according to the range below and shown in Table 4 below (A: >60% inhibition, B: 30 to 60% inhibition, N/A: no test).

[1] = Cell viability measurement (MTS), Calu-3 cells; settings: human
In short: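 Calu-3 cells at about 20% confluency treated with compounds at 1, 3 and 10 μM (0.5% v/v DMSO) for 48 h at 37 °C. MTS added for 1 h; A490 minus A690 background, normalized to DMSO control as 100%; mean of 2–6 repeats, binned into viability ranges.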

[2] = system: Severe Acute Respiratory Syndrome Coronavirus Type 2; experiment: microbe, parasite or virus in culture; settings: Vero, 10 uM, virus strain NCCP-43344, 48 hours, read-out: Virus replication inhibition efficacy
[3] = system: Severe Acute Respiratory Syndrome Coronavirus Type 2; experiment: microbe, parasite or virus in culture; settings: Calu-3, 10 uM, virus strain NCCP-43344, 48 hours, read-out: Virus replication inhibition efficacy
[4] = Cell viability measurement (MTS), Vero cells; settings: monkey
Experimental: Experimental Example 3: Cell Viability Measurement
Vero cell line (VERO01WCB-1201, Ministry of Food and Drug Safety, Republic of Korea), Calu-3 cell line (KCLB #30055, Korea Cell Line Bank (KCLB), Republic of Korea), CellTiter 96® AQueous One Solution Cell Proliferation Assay kit (Promega, cat. #G3582), and Infinite M200 microplate reader (Tecan).
Vero cells were cultured at 37 °C and 5% CO2 in DMEM medium supplemented with 10% fetal bovine serum, 100 units/mL penicillin, and 100 μg/mL streptomycin.
Vero cells or Calu-3 cells were seeded in 96-well microplates and cultured for 24 hours until the cell confluency reached 20%. After the incubation, compounds were treated in DMSO at concentrations (1, 3, and 10 μM) to reach 0.5% v/v in each well, and reacted at 37 °C for 48 hours. Into each well of the incubated 96-well microplate, 3-(4,5-dimethylthiazol-2-yl)-5-(3-carboxymethoxyphenyl)-2-(4-sulfophenyl)-2H-tetrazolium salt (MTS) assay solution [CellTiter 96® AQueous One Solution Cell Proliferation Assay kit (Promega)] mixed with DMEM medium at a ratio of 1:5, was dispensed at 100 μL/well and incubated at 37 °C for 1 hour. The 490 nm and 690 nm absorbance was then measured using an Infinite M200 instrument.
The cell viability (also, referred to as cell survival rate) (%) by compound treatment was calculated using the following analysis method. The 690 nm background absorbance value was subtracted from the measured 490 nm absorbance value. Then, to obtain the cell viability of each test group, the viability of the DMSO-treated group that was not treated with the compound was set to 100% and then the relative viability 1 of each compound was calculated. Two to six repeated tests were performed to obtain the results, and the mean values of the results were categorized into the following ranges and shown in Table 5 below (A: 80% survived, B: 50-80% survived, N/A: not tested)

SMILES | inhibition at 1 µM (human ANO6 (variant 5)) [%] | viability at 48 h, 10 µM [1] [%] | inhibition at 0.05 µM (human ANO6 (variant 5)) [%] | other results
FC(F)(F)c1ccc2nc(-c3cccc(NC4CCC(c5cccnn5)CC4)c3)[nH]c2c1 (mixture of isomers) [Example 124, N-(4-(pyridazin-3-yl)cyclohexyl)-3-(6-(trifluoromethyl)-1H-benzo[d]imidazol-2-yl)aniline] | 30 to 60 | – | – | –
c1cnc(-c2ccc(Nc3cccc(-c4nc5ccccc5[nH]4)c3)cc2)nc1 [Example 26, N-[3-(1H-benzo[d]imidazol-2-yl)phenyl]-4-(pyrimidin-2-yl)aniline] | – | – | – | viability at 48 h, 1 µM [1]: > 80%; viability at 48 h, 3 µM [1]: 50 to 80%; inhibition at 10 µM [2]: > 60%; inhibition at 10 µM [3]: > 60%; viability at 48 h, 1 µM ([4]; 1 μM): > 80%; viability at 48 h, 10 µM ([4]; 10 μM): > 80%
Fc1ccc2nc(-c3cccc(Nc4ncc(-c5cccnn5)cn4)c3)[nH]c2c1 [Example 51, N-(3-(6-fluoro-1H-benzo[d]imidazol-2-yl)phenyl)-5-(pyridazin-3-yl)pyrimidin-2-amine] | – | > 80 | 30 to 60 | viability at 48 h, 1 µM [1]: > 80%; viability at 48 h, 3 µM [1]: > 80%
COc1cc2nc(-c3cccc(Nc4ncc(-c5cccnn5)cn4)c3)[nH]c2cc1F [Example 121, N-[3-(6-fluoro-5-methoxy-1H-benzo[d]imidazol-2-yl)phenyl]-5-pyridazin-3-yl-pyrimidin-2-amine] | 30 to 60 | – | – | –
Fc1cc2nc(-c3cccc(Nc4ncc(-c5ccccn5)cn4)c3)[nH]c2cc1F [Example 313, N-(3-(5,6-difluoro-1H-benzo[d]imidazol-2-yl)phenyl)-5-(pyridin-2-yl)pyrimidin-2-amine] | > 60 | > 80 | > 60 | –
Fc1ccc2nc(-c3cccc(Nc4cnc(-c5ccccn5)cn4)c3)[nH]c2c1 [Example 323, N-(3-(6-fluoro-1H-benzo[d]imidazol-2-yl)phenyl)-5-(pyridin-2-yl)pyrazin-2-amine] | > 60 | > 80 | 30 to 60 | –
Clc1ccc2nc(-c3cccc(Nc4cnc(-c5ccccn5)cn4)c3)[nH]c2c1 [Example 324, N-(3-(6-chloro-1H-benzo[d]imidazol-2-yl)phenyl)-5-(pyridin-2-yl)pyrazin-2-amine] | > 60 | > 80 | 30 to 60 | –
FC(F)(F)Oc1ccc2nc(-c3cccc(Nc4cnc(-c5ccccn5)cn4)c3)[nH]c2c1 [Example 325, 5-(pyridin-2-yl)-N-(3-(6-(trifluoromethoxy)-1H-benzo[d]imidazol-2-yl)phenyl)pyrazin-2-amine] | > 60 | – | – | –
FC(F)(F)c1cc2[nH]c(-c3cccc(Nc4cnc(-c5ccccn5)cn4)c3)nc2cn1 [Example 328, 5-(pyridin-2-yl)-N-(3-(6-(trifluoromethyl)-1H-imidazo[4,5-c]pyridin-2-yl)phenyl)pyrazin-2-amine] | > 60 | – | – | –
FC(F)Oc1cc2[nH]c(-c3cccc(Nc4ncc(-c5ccccn5)cn4)c3)nc2cn1 [Example 329, N-(3-(6-(difluoromethoxy)-1H-imidazo[4,5-c]pyridin-2-yl)phenyl)-5-(pyridin-2-yl)pyrimidin-2-amine] | > 60 | 50 to 80 | > 60 | –
Fc1cc2[nH]c(-c3cccc(Nc4cnc(-c5ccccn5)cn4)c3)nc2cn1 [Example 330, N-(3-(6-fluoro-1H-imidazo[4,5-c]pyridin-2-yl)phenyl)-5-(pyridin-2-yl)pyrazin-2-amine] | > 60 | > 80 | – | –
FC(F)Oc1cc2[nH]c(-c3cccc(Nc4ccc(-c5cccnn5)cc4)c3)nc2cn1 [Example 331, 3-(6-(difluoromethoxy)-1H-imidazo[4,5-c]pyridin-2-yl)-N-(4-(pyridazin-3-yl)phenyl)aniline] | > 60 | > 80 | 30 to 60 | –
Fc1cc2nc(-c3cccc(Nc4ncc(-c5cscn5)cn4)c3)[nH]c2cc1F [Example 332, N-(3-(5,6-difluoro-1H-benzo[d]imidazol-2-yl)phenyl)-5-(thiazol-4-yl)pyrimidin-2-amine] | > 60 | > 80 | > 60 | –
FC(F)Oc1ccc2nc(-c3cccc(Nc4ccc(-c5cccnn5)cc4)c3)[nH]c2c1 [Example 335, 3-(6-(difluoromethoxy)-1H-benzo[d]imidazol-2-yl)-N-(4-(pyridazin-3-yl)phenyl)aniline] | > 60 | – | > 60 | –
FC(F)Oc1cc2[nH]c(-c3cccc(Nc4cnc(-c5ccccn5)cn4)c3)nc2cn1 [Example 336, N-(3-(6-(difluoromethoxy)-1H-imidazo[4,5-c]pyridin-2-yl)phenyl)-5-(pyridin-2-yl)pyrazin-2-amine] | > 60 | > 80 | > 60 | –
